Assay results taken from patent publication US20100113445A1, “Chemical Compounds” (SMITHKLINE BEECHAM CORPORATION, priority 2007, published 2010).
Counter-ions that a name gives are not always drawn.

Target: T1, Wee1 (Homo sapiens, UniProt P30291)
T1 construct: endogenous in cells; host or cells: HeLa cells
Assay: Cell assay for Wee1 inhibitory activity (cell-based ELISA of cdc2 phosphorylation)
Conditions: aphidicolin-synchronized Hela cells in G2-M; phospho-cdc2(Tyr15) sandwich ELISA; read-out: pIC50, cell assay for Wee1 inhibitory activity (converted)
Text: Cell Assay for Wee1 Inhibitory Activity
Wee1 inhibitory activity can be measured using a cell-based ELISA assay.
Hela cells are synchronized using aphidicolin, which blocks the entry of cells into S-phase. Cells in G2-M transition phase are then obtained by releasing the cells from aphidicolin treatment for approximately 7-9 hrs. The phosphorylation level of the Wee1 target cdc2 may then be measured by sandwich ELISA using an anti-cdc2 antibody and an anti-phospho-cdc2(Tyr15) antibody. This cell assay was used to calculate a pIC50 for the compounds described in Examples 3, 4, 6-8, 10-12, 15, 17, 18, 21, 23, 25-27, 33, 35, 39, 43, 44, 51, 63, and 99.

T1 sequence (P30291 whole entry): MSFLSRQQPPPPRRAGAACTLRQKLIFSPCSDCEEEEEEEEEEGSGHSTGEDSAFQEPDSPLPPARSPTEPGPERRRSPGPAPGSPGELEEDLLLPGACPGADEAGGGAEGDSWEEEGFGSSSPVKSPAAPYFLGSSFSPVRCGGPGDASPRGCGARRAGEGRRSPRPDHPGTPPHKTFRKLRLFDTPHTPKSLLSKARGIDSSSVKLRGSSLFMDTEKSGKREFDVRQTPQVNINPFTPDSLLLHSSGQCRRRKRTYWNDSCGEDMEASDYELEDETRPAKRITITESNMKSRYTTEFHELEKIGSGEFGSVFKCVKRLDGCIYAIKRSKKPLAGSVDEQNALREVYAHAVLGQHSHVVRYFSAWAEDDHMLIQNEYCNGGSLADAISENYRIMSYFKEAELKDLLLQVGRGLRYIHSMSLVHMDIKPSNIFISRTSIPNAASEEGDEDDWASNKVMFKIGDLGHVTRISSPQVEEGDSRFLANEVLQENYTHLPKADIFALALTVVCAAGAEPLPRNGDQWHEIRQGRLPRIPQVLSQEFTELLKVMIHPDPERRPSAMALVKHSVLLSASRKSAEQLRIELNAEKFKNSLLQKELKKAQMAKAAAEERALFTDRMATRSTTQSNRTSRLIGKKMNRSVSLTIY

Structure (SMILES)	IC50
CCN(CC)CCOc1ccc(Nc2ncc(-c3cccc(N)c3)c(Nc3ccccc3OC)n2)cc1 [Example 35, 5-(3-aminophenyl)-N^2-(4-{[2-(diethylamino)ethyl]oxy}phenyl)-N^4-[2-(methyloxy)phenyl]-2,4-pyrimidinediamine]	≤ 10 µM
CCN(CC)CCOc1ccc(Nc2ncc(-c3cncnc3)c(Nc3ccccc3OC)n2)cc1 [Example 8, N^2-(4-{[2-(diethylamino)ethyl]oxy}phenyl)-N^4-[2-(methyloxy)phenyl]-5,5′-bipyrimidine-2,4-diamine]	≤ 10 µM
CCN(CC)CCOc1ccc(Nc2ncc(-c3ccc(O)cc3)c(Nc3ccccc3OC)n2)cc1 [Example 7]	≤ 10 µM
CCN(CC)CCOc1ccc(Nc2ncc(-c3cnc4ccccc4c3)c(Nc3ccccc3OC)n2)cc1 [Example 10, N^2-(4-{[2-(diethylamino)ethyl]oxy}phenyl)-N^4-[2-(methyloxy)phenyl]-5-(3-quinolinyl)-2,4-pyrimidinediamine]	≤ 10 µM
CCN(CC)CCOc1ccc(Nc2ncc(-c3cnn(Cc4ccccc4)c3)c(Nc3ccccc3OC)n2)cc1 [Example 12, N^2-(4-{[2-(diethylamino)ethyl]oxy}phenyl)-N^4-[2-(methyloxy)phenyl]-5-[1-(phenylmethyl)-1H-pyrazol-4-yl]-2,4-pyrimidinediamine]	≤ 10 µM
CCN(CC)CCOc1ccc(Nc2ncc(-c3cncc(OC)c3)c(Nc3ccccc3OC)n2)cc1 [Example 6, N^2-(4-{[2-(diethylamino)ethyl]oxy}phenyl)-N^4-[2-(methyloxy)phenyl]-5-[5-(methyloxy)-3-pyridinyl]-2,4-pyrimidinediamine]	≤ 10 µM
CCC(C)NC(=O)c1ccccc1Nc1nc(Nc2ccc(Cn3cncn3)cc2)ncc1-c1cn[nH]c1 (stereo not drawn) [Example 25, N-(1-methylpropyl)-2-[(5-(1H-pyrazol-4-yl)-2-{[4-(1H-1,2,4-triazol-1-ylmethyl)phenyl]amino}-4-pyrimidinyl)amino]benzamide]	≤ 10 µM
Fc1cccc(CCNc2nc(Nc3ccc(Cn4cncn4)cc3)ncc2-c2cncnc2)c1 [Example 26, N^4-[2-(3-fluorophenyl)ethyl]-N^2-[4-(1H-1,2,4-triazol-1-ylmethyl)phenyl]-5,5′-bipyrimidine-2,4-diamine]	≤ 10 µM
CCN(CC)CCOc1ccc(Nc2ncc(-c3cccc(C(N)=O)c3)c(Nc3ccccc3OC)n2)cc1 [Example 63, 3-(2-[(4-{[2-(diethylamino)ethyl]oxy}phenyl)amino]-4-{[2-(methyloxy)phenyl]amino}-5-pyrimidinyl)benzamide]	≤ 10 µM
CCN(CC)CCOc1ccc(Nc2ncc(-c3ccccc3Cl)c(Nc3ccccc3OC)n2)cc1 [Example 11, 5-(2-chlorophenyl)-N^2-(4-{[2-(diethylamino)ethyl]oxy}phenyl)-N^4-[2-(methyloxy)phenyl]-2,4-pyrimidinediamine]	≤ 10 µM
Cc1ncc(-c2cccc(Nc3nc(Nc4ccc(Cn5cncn5)cc4)ncc3-c3cncnc3)c2)s1 [Example 51, N^4-[3-(2-methyl-1,3-thiazol-5-yl)phenyl]-N^2-[4-(1H-1,2,4-triazol-1-ylmethyl)phenyl]-5,5′-bipyrimidine-2,4-diamine]	≤ 10 µM
COc1ccccc1Nc1nc(Nc2cccc(OCCN(C)C)c2)ncc1-c1cn[nH]c1 [Example 99, N^2-(3-{[2-(dimethylamino)ethyl]oxy}phenyl)-N^4-[2-(methyloxy)phenyl]-5-(1H-pyrazol-4-yl)-2,4-pyrimidinediamine hydrochloride]	≤ 10 µM
CCN(CC)CCOc1ccc(Nc2ncc(-c3cn[nH]c3)c(Nc3ccccc3OC)n2)cc1 [Example 3, N^2-(4-{[2-(diethylamino)ethyl]oxy}phenyl)-N^4-[2-(methyloxy)phenyl]-5-(1H-pyrazol-4-yl)-2,4-pyrimidinediamine]	≤ 10 µM
CCN(CC)CCOc1ccc(Nc2ncc(-c3ccc4[nH]ncc4c3)c(Nc3ccccc3OC)n2)cc1 [Example 4, N^2-(4-[{2-(diethylamino)ethyl]oxy}phenyl)-5-(1H-indazol-5-yl)-N^4-[2-(methyloxy)phenyl]-2,4-pyrimidinediamine]	≤ 10 µM
CCN(CC)CCOc1ccc(Nc2ncc(-c3cncnc3)c(Nc3cccc(C#N)c3)n2)cc1 [Example 44, 3-({2-[(4-{[2-(diethylamino)ethyl]oxy}phenyl)amino]-5,5′-bipyrimidin-4-yl}amino)benzonitrile]	≤ 10 µM
CCN(CC)CCOc1ccc(Nc2ncc(-c3cccc(CO)c3)c(Nc3ccccc3OC)n2)cc1 [Example 21, [3-(2-[(4-{[2-(diethylamino)ethyl]oxy}phenyl)amino]-4-{[2-(methyloxy)phenyl]amino}-5-pyrimidinyl)phenyl]methanol]	≤ 10 µM
COc1ccccc1Nc1nc(Nc2ccc(Cn3cncn3)cc2)ncc1-c1cncnc1 [Example 33, N^4-[2-(methyloxy)phenyl]-N^2-[4-(1H-1,2,4-triazol-1-ylmethyl)phenyl]-5,5′-bipyrimidine-2,4-diamine]	≤ 10 µM
CCN(CC)CCOC(=O)Nc1ccc(Nc2ncc(-c3cncnc3)c(Nc3ccccc3OC)n2)cc1 [Example 43, 2-(diethylamino)ethyl {4-[(4-{[2-(methyloxy)phenyl]amino}-5,5′-bipyrimidin-2-yl)amino]phenyl}carbamate]	≤ 10 µM
